Reference: article PMC6149849, “Cymantrenyl-Nucleobases: Synthesis, Anticancer, Antitrypanosomal and Antimicrobial Activity Studies” (Molecules : A Journal of Synthetic Chemistry and Natural …, 2017)

Legend:
[1] = system: S. aureus ATCC 29213 (MSSA); experiment: Antibacterial liquid microdilution (CLSI M07-A8); type: cell-based, Staphylococcus aureus; settings: 18 to 24 h
[2] = system: S. aureus ATCC 700787 (VISA); experiment: Antibacterial liquid microdilution (CLSI M07-A8); type: cell-based, Staphylococcus aureus; settings: 18 to 24 h
[3] = system: S. aureus ATCC 43300 (MRSA); experiment: Antibacterial liquid microdilution (CLSI M07-A8); type: cell-based, Staphylococcus aureus; settings: 18 to 24 h
[4] = system: MCF-7 (hormone-responsive breast adenocarcinoma); experiment: MTT cytotoxicity assay, MCF-7; type: cell-based, human; settings: 24 h incubation, MTT; means ± SEM; read-out: cytotoxicity IC50, MCF-7
Procedure: (§3) Anticancer activity of cymantrenes was determined using a panel of human cancer cell lines that were derived from solid tumors. […] The inhibitory effect of cymantrene derivatives on cell proliferation and growth was determined based on survival curves and was expressed as IC50 values (concentration required to achieve a 50% decrease in cell viability when compared to the viability of untreated control cells) calculated using GraphPad Prism 4.02 software for Windows (GraphPad Software, San Diego, CA, USA). Cell viability was determined by the MTT microplate spectrophotometric cytotoxicity test.
(§4) Cells were grown as a monolayer in DMEM growth medium, supplemented with 10% FBS, penicillin (10 U/mL) and streptomycin (50 μg/mL), under standard conditions (37 °C, 5% CO2 and 95% air, 100% humidity) and periodically checked for Mycoplasma contamination.
(§5) The cytotoxicity of cymantrene derivatives was evaluated by the MTT microplate methods as described elsewhere [67] by incubating the cells with increasing concentrations of tested compounds for 24 h. Briefly, 0.1 mL of logarithmically growing cells were seeded in a 96-well microplate (5 × 10^4 cells/well) a day before the experiments and after 24 h of culture, tested compounds, dissolved in DMSO, and diluted in culture medium, were added. […] After further incubation for 24 h, the medium was replaced with fresh medium and the cells were allowed to grow for additional 48 h. Then, the medium was aspirated and 0.05 mL of MTT (final concentration of 5 mg/mL medium) added to each well, and the cells were incubated for further 4 h. The absorbance of the product, resulting from the MTT reduction, was read with a microplate reader at 545 nm. The percentage of viable cells was calculated by comparing the absorbance of treated cells with that of the untreated control cells (taken as 100%). The IC50 concentration of each compound was calculated from the cell survival curves using GraphPad Prism 4.02 software for Windows (GraphPad Software, San Diego, CA, USA).

[5] = system: S. epidermidis ATCC 12228; experiment: Antibacterial liquid microdilution (CLSI M07-A8); type: cell-based, Staphylococcus epidermidis; settings: 18 to 24 h
SKOV-3 cells [6] = experiment: Apoptotic/necrotic cell death, Hoechst 33258/propidium iodide staining, fluorescence microscopy; type: cell-based, human
Procedure: (§1) To determine the mode of cell death that was triggered by cymantrene derivatives, appropriately stained SKOV-3 cells were evaluated for morphological changes using fluorescence microscopy. For evaluation of apoptosis and autophagy, cells were stained with Hoechst 33258/propidium iodide to distinguish between live, apoptotic and necrotic cells and reveal condensed chromatin and apoptotic bodies (a hallmark of apoptosis), and with acridine orange to detect the development of acidic vesicular organelles (AVOs—a hallmark of autophagy).
(§2) One day prior to the experiments, cells were seeded at the appropriate density into 35 mm diameter dishes. […] At the end of incubation, the medium was aspirated, the cell monolayer was washed twice with pre-warmed PBS, and fresh medium was added. The cells were cultured in drug-free medium for an additional 24 or 48 h to enable them to recover after the exposure to the compounds and to repair any induced damages.
Quantitative analysis of morphological changes that are associated with apoptosis, necrosis, and autophagy were assessed using a fluorescence microscope (Olympus IX70, Tokyo, Japan) at 400× magnification, as described elsewhere. At the indicated time points, cells were washed with PBS, trypsinized, and centrifuged at 1000 rpm (fixed angle rotor, 72× g) for 5 min at 37 °C. The supernatant was removed and the cell pellet (100 µL) was transferred to the Eppendorf tube, mixed with Ho33258 (2 µL, 0.13 mM) and PI (2 µL, 0.23 mM), and incubated for 5 min in the dark at room temperature. At least 300 stained cells were counted in triplicate in each of the three independent experiments. Cells were classified as live, apoptotic, or necrotic on the basis of their morphological and staining characteristics, and each fraction was related to the total cell number.

[7] = system: MDA-MB-231 (triple negative breast adenocarcinoma); experiment: MTT cytotoxicity assay, MDA-MB-231; type: cell-based, human; settings: 24 h incubation, MTT; means ± SEM; read-out: cytotoxicity IC50, MDA-MB-231
Procedure: as §3, §4, §5

[8] = system: HepG2 (hepatocellular carcinoma); experiment: MTT cytotoxicity assay, HepG2; type: cell-based, human; settings: 24 h incubation, MTT; means ± SEM; read-out: cytotoxicity IC50, HepG2
Procedure: as §3, §4, §5

U87-MG (glioblastoma) = experiment: MTT cytotoxicity assay, U87-MG; type: cell-based, human; settings: 24 h incubation, MTT; means ± SEM; read-out: cytotoxicity IC50, U87-MG
Procedure: as §3, §4, §5

SKOV-3 cells [9] = experiment: Autophagy (acidic vesicular organelles, AVOs), acridine orange staining; type: cell-based, human; settings: SKOV-3, IC50 concentrations 24 h, then 0, 24 or 48 h drug-free
Procedure: as §1, §2
The ability of tested compounds to induce autophagosome formation inside cells (the process associated with the induction of autophagy) was evaluated by microscopic examination of the morphology of cells stained with acridine orange (AO).

[10] = system: E. coli ATCC BAA-198 (ESBL); experiment: Antibacterial liquid microdilution (CLSI M07-A8); type: cell-based, Escherichia coli; settings: 18 to 24 h
[11] = system: bloodstream forms of T. brucei clone 427-221a; experiment: Trypanocidal assay, resazurin viability assay; type: cell-based, Trypanosoma brucei
In short: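 Trypanosomes seeded at 10^4/mL and HL-60 at 5 × 10^4/mL with compound (final DMSO 0.9%), 37 °C, 5% CO2. After 24 h, resazurin added and cells incubated a further 48 h; absorbance 570 nm (reference 630 nm). GI50 by linear interpolation; MIC judged microscopically.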

[12] = ratio of cytotoxic (HL-60) to trypanocidal (T. brucei) activity

## O=c1[nH]c(=O)n(CCC(O)[C]23[CH]4[CH]5[CH]6[CH]2[Mn]5643[P](c2ccccc2)(c2ccccc2)c2ccccc2)cc1F.[C-]#[O+].[C-]#[O+] (racemic) [Compound 3]
[1]
  MIC, S. aureus ATCC 29213 (MSSA): >256 µg/mL
[2]
  MIC, S. aureus ATCC 700787 (VISA): >256 µg/mL
[3]
  MIC, S. aureus ATCC 43300 (MRSA): >256 µg/mL
[4]
  IC50: 57.8 ± 2.89 µM
[5]
  MIC, S. epidermidis ATCC 12228: >256 µg/mL
SKOV-3 cells [6]; SKOV-3, 24 h treatment with IC50 concentrations, post-treatment 24 and 48 h
  increase of apoptotic cells compared to untreated control cells: only a three-fold increase
SKOV-3 cells [6]; SKOV-3, morphology
  mitotic cell death: induced extensive mitotic cell death
[7]
  IC50: 35.7 ± 1.44 µM
[8]
  IC50: 65.8 ± 3.29 µM
U87-MG (glioblastoma)
  IC50: 24.9 ± 1.24 µM
SKOV-3 cells [9]
  induction of autophagy (cells containing AVOs): very little autophagic activity
[10]
  MIC, E. coli ATCC BAA-198: >256 µg/mL
[11]; 50% growth inhibition
  GI50: 4.27 ± 0.13 µM
[11]; HL-60 / T. brucei
  MIC and GI50 ratios of cytotoxic to trypanocidal activities: 7–13
[11]; concentration at which all cells were killed, determined microscopically
  MIC: 10 µM
[11]; [12]
  Selectivity GI50 Ratio: 7.2
  Selectivity MIC Ratio: 10
